Laboratory results published in patent publication US20090258836A1, “EFFECTIVE DELIVERY OF CROSS-SPECIES A3 ADENOSINE-RECEPTOR ANTAGONISTS TO REDUCE INTRAOCULAR PRESSURE” (The Trustees of The University of Pennsylvania, priority 2006, published 2009).
pKi: −log10 of the molar value. “Also recorded” adds a separate entry of the source.

Assays:
human A1 receptors = molecular target: T1, human A1 receptors (Homo sapiens, UniProt P30542); settings: literature; read-out: Ki for the binding to human A1 receptors; cited from earlier work
T1 sequence (P30542 1-326): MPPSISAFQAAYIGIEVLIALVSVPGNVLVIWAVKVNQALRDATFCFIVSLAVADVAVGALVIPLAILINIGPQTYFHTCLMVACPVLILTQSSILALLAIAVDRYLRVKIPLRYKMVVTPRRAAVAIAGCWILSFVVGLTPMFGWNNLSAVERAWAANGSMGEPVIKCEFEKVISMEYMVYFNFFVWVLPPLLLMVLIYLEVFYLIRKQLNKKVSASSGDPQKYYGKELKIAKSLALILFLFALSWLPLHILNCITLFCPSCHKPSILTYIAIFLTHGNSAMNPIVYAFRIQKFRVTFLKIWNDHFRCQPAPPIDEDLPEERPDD

[1] = molecular target: T2, recombinant human A2B receptors (Homo sapiens, UniProt P29275); assay: Radioligand binding to recombinant human A2B receptors; settings: 10 μM
T2 sequence (P29275 1-332): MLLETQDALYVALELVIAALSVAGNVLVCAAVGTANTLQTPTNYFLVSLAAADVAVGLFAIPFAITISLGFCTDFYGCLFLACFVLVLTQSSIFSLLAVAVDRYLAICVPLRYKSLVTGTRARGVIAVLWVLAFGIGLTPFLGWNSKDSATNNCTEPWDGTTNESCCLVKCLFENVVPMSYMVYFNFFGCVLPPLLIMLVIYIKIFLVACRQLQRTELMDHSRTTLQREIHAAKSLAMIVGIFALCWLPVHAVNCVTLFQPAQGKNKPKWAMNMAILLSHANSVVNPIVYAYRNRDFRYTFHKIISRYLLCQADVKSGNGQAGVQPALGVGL

[2] = test system: HCE (human ciliary epithelial) cell line, NPE cells; assay: Cell volume in isosmotic solution (isosmotic shrinkage), Coulter Counter; format: cell-based
In short: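 Immortalized human NPE (HCE) cells, 8-13 days post-passage at confluence, suspended in isosmotic solution with test agents or matched vehicle. Volume measured by Coulter Counter as peak of distribution, normalized to first time point; shrinkage fit to monoexponential by nonlinear least squares for steady-state volume and time constant.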

cultured human NPE cells = settings: 10 μM adenosine; cited from earlier work
[3] = test system: IOP of A3 subtype adenosine receptor (A3AR)-null mice; settings: published reports; cited from earlier work
human A2A receptors = human A2A receptors (Homo sapiens, UniProt P29274); settings: literature; read-out: Ki for the binding to human A2A receptors; cited from earlier work
human A2A receptors, sequence (P29274 whole entry): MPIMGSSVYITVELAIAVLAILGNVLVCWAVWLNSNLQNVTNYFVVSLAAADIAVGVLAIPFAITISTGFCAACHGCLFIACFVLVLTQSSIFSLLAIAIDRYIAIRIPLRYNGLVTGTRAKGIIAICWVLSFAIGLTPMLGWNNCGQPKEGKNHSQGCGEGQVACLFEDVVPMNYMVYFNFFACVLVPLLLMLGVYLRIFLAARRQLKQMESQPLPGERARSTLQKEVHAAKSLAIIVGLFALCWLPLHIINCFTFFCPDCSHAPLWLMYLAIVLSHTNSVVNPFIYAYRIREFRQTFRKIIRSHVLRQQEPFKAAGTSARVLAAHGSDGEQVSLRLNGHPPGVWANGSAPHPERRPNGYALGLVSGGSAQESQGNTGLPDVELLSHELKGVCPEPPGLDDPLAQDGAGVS

Structure (SMILES): CCOC(=O)C1=C(C)NC(c2ccccc2)=C(C(=O)OCc2ccccc2)C1C#Cc1ccccc1 (racemic) [MRS-1191, 3-ethyl 5-benzyl-2-methyl-6-phenyl-4-phenylethynyl-1,4-(±)-dihydropyridine-3,5-dicarboxylate]
- pKi (human A1 receptors): 4.40
- displacement of radioligand binding [1]: did not displace radioligand binding
- effect of A3 antagonist on IB-MECA-triggered isosmotic shrinkage of NPE cells ([2]; 100 nM IB-MECA, 2 min preincubation with 300 nM MRS-1097 or 100 nM MRS-1191): prevented characteristic shrinkage; also recorded: prevented the shrinkage
- effect on cell volume in the absence of IB-MECA ([2]; 100 nM MRS-1191): did not affect cell volume
- effect of A3 antagonist on isosmotic shrinkage triggered by CGS-21680 ([2]; 3 μM CGS-21680, preincubation with 100 nM MRS-1191): abolished this effect; also recorded: blocked; also recorded: prevented the shrinkage
- effect of A3 antagonist on adenosine-stimulated isotonic shrinkage of NPE cells ([2]; 10 μM adenosine, 2 min preincubation with 300 nM MRS-1097, 100 nM MRS-1191 or 100 nM MRS-1523): prevented the characteristic shrinkage; also recorded: blocked the shrinkage
- effect of antagonist on adenosine-treated cells (cultured human NPE cells): displayed no exponential shrinkage
- response of IOP of A3AR-null mice [3]: unresponsive
- pKi (human A2A receptors): < 4.00
